“And” between values parts separate entries of the source, which are not always exact repeats. Identical values can stand only once. Inconclusive results and toxic doses are left out. No stated cut-off is given here; in the data, active means T/C of 150% or more; inactive means T/C below 125%.
Tested on: L1210 leukemia ip in BDF1 mice, survival T/C
Assay: NCI In Vivo Anticancer Drug Screen. Data for tumor model L1210 Leukemia (intraperitoneal) in B6D2F1 (BDF1) mice
Details: endpoint: mean survival time, higher = longer survival
Summary of the method: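 Value reflects the ratio of survival in compound-treated mice to survival in vehicle-treated controls, with both groups carrying the same transplanted tumor.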

[1] = dose: 50.0 mg/kg/injection, schedule: Q01DX001 (ip), vehicle: carboxymethylcellulose (CMC)
[2] = dose: 100.0 mg/kg/injection, schedule: Q01DX001 (ip), vehicle: carboxymethylcellulose (CMC)
[3] = dose: 100.0 mg/kg/injection, schedule: Q01DX009 (ip), vehicle: saline with Tween-80
[4] = dose: 200.0 mg/kg/injection, schedule: Q01DX009 (ip), vehicle: saline with Tween-80
[5] = dose: 400.0 mg/kg/injection, schedule: Q01DX009 (ip), vehicle: saline with Tween-80
[6] = dose: 100.0 mg/kg/injection, schedule: Q04DX003 (ip), vehicle: Klucel (hydroxypropylcellulose) (HPC)
[7] = dose: 200.0 mg/kg/injection, schedule: Q04DX003 (ip), vehicle: Klucel (hydroxypropylcellulose) (HPC)
[8] = dose: 400.0 mg/kg/injection, schedule: Q04DX003 (ip), vehicle: Klucel (hydroxypropylcellulose) (HPC)
[9] = dose: 100.0 mg/kg/injection, schedule: Q01DX009 (ip), vehicle: Klucel (hydroxypropylcellulose) (HPC)
[10] = dose: 200.0 mg/kg/injection, schedule: Q01DX009 (ip), vehicle: Klucel (hydroxypropylcellulose) (HPC)
[11] = dose: 100.0 mg/kg/injection, schedule: Q01DX001 (ip), vehicle: saline
[12] = dose: 200.0 mg/kg/injection, schedule: Q01DX001 (ip), vehicle: saline
[13] = dose: 100.0 mg/kg/injection, schedule: Q01DX009 (ip), vehicle: saline
[14] = dose: 100.0 mg/kg/injection, schedule: Q04DX003 (ip), vehicle: saline
[15] = dose: 200.0 mg/kg/injection, schedule: Q01DX009 (ip), vehicle: saline
[16] = dose: 200.0 mg/kg/injection, schedule: Q04DX003 (ip), vehicle: saline
[17] = dose: 400.0 mg/kg/injection, schedule: Q01DX009 (ip), vehicle: saline
[18] = dose: 400.0 mg/kg/injection, schedule: Q04DX003 (ip), vehicle: saline
[19] = dose: 50.0 mg/kg/injection, schedule: Q04DX002 (ip), vehicle: Klucel (hydroxypropylcellulose) (HPC)
[20] = dose: 100.0 mg/kg/injection, schedule: Q04DX002 (ip), vehicle: Klucel (hydroxypropylcellulose) (HPC)
[21] = dose: 200.0 mg/kg/injection, schedule: Q04DX002 (ip), vehicle: Klucel (hydroxypropylcellulose) (HPC)
[22] = dose: 100.0 mg/kg/injection, schedule: Q04DX003 (ip), vehicle: saline with Tween-80
[23] = dose: 200.0 mg/kg/injection, schedule: Q04DX003 (ip), vehicle: saline with Tween-80
[24] = dose: 400.0 mg/kg/injection, schedule: Q04DX003 (ip), vehicle: saline with Tween-80
[25] = dose: 100.0 mg/kg/injection, schedule: Q04DX002 (ip), vehicle: saline with Tween-80
[26] = dose: 200.0 mg/kg/injection, schedule: Q04DX002 (ip), vehicle: saline with Tween-80
[27] = dose: 400.0 mg/kg/injection, schedule: Q04DX002 (ip), vehicle: saline with Tween-80

Measured: T/C

C[C@]12CC[C@H](O)C[C@@]1(O)CC[C@@H]1[C@@H]2CC[C@]2(C)[C@@H](c3ccc(=O)oc3)CC[C@]12O
inactive: dose: 1.25 mg/kg/injection, schedule: Q01DX009 (ip), vehicle: Klucel (hydroxypropylcellulose) (HPC) 107 % of control | dose: 2.5 mg/kg/injection, schedule: Q01DX009 (ip), vehicle: Klucel (hydroxypropylcellulose) (HPC) 91 % of control | dose: 5.0 mg/kg/injection, schedule: Q01DX009 (ip), vehicle: Klucel (hydroxypropylcellulose) (HPC) 96 % of control | dose: 10.0 mg/kg/injection, schedule: Q01DX009 (ip), vehicle: Klucel (hydroxypropylcellulose) (HPC) 102 % of control | dose: 20.0 mg/kg/injection, schedule: Q01DX009 (ip), vehicle: Klucel (hydroxypropylcellulose) (HPC) 98 % of control | dose: 25.0 mg/kg/injection, schedule: Q01DX009 (ip), vehicle: carboxymethylcellulose (CMC) 106 % of control | [1] 104 % of control | dose: 50.0 mg/kg/injection, schedule: Q01DX009 (ip), vehicle: carboxymethylcellulose (CMC) 92 % of control | [2] 109 % of control

O=C(O)/C=C/C(=O)NC1CCCCC1
inactive: [3] 94 % of control | [4] 96 % of control | [5] 98 % of control

CCCCCCCCCCCCSC(=O)Nc1cc([N+](=O)[O-])ccc1C
inactive: [6] 92 % of control | [7] 88 % of control | [8] 88 % of control

CCCCCCCCCCCCCCC1CC(=O)OC1=O (stereo not drawn)
inactive: [9] 92 % of control | [6] 86 % of control | [10] 86 % of control | [7] 88 % of control | [8] 93 % of control

Nc1ccc(S(=O)(=O)Nc2ccc([N+](=O)[O-])cn2)cc1
inactive: [11] 101 % of control | [12] 104 % of control | dose: 400.0 mg/kg/injection, schedule: Q01DX001 (ip), vehicle: saline 98 % of control

CCCCCCCCCC(=O)CCC
inactive: [13] 100 % of control | [14] 111 % of control | [15] 96 % of control | [16] 97 % of control | [17] 98 % of control | [18] 105 % of control

NC(=O)NC(=O)CCl
inactive: [19] 103 % of control | [20] 109 % of control | [21] 95 % of control

O=C(COc1ccc(Cl)cc1)Nc1nccs1
inactive: [3] 96 % of control | [4] 89 % of control | [5] 92 % of control

C=CCC(O)C=C (stereo not drawn)
inactive: [1] 89 % of control | [2] 92 % of control

OCCC#CCCCO
inactive: [13] 93 % of control | [15] 92 % of control | [17] 88 % of control

O=Cc1cccn1-c1ccc2ncccc2c1[N+](=O)[O-]
inactive: [19] 90 % of control | [20] 111 % of control | [21] 93 % of control

N#CC(C#N)=NNc1ccc(S(=O)(=O)c2ccc(NN=C(C#N)C#N)cc2)cc1
inactive: [22] 103 % of control | [23] 97 % of control | [24] 97 % of control

CCOC(=O)c1cc(Cl)c2c(ccc3ccccc32)n1
inactive: [2] 115 % of control | dose: 100.0 mg/kg/injection, schedule: Q01DX009 (ip), vehicle: carboxymethylcellulose (CMC) 92 % of control | dose: 100.0 mg/kg/injection, schedule: Q04DX002 (ip), vehicle: carboxymethylcellulose (CMC) 100 % of control and 103 % of control | dose: 100.0 mg/kg/injection, schedule: Q04DX003 (ip), vehicle: carboxymethylcellulose (CMC) 105 % of control | dose: 200.0 mg/kg/injection, schedule: Q01DX001 (ip), vehicle: carboxymethylcellulose (CMC) 103 % of control | dose: 200.0 mg/kg/injection, schedule: Q01DX009 (ip), vehicle: carboxymethylcellulose (CMC) 92 % of control | dose: 200.0 mg/kg/injection, schedule: Q04DX002 (ip), vehicle: carboxymethylcellulose (CMC) 93 % of control and 97 % of control | dose: 200.0 mg/kg/injection, schedule: Q04DX003 (ip), vehicle: carboxymethylcellulose (CMC) 115 % of control | dose: 400.0 mg/kg/injection, schedule: Q01DX001 (ip), vehicle: carboxymethylcellulose (CMC) 97 % of control | dose: 400.0 mg/kg/injection, schedule: Q01DX009 (ip), vehicle: carboxymethylcellulose (CMC) 98 % of control | dose: 400.0 mg/kg/injection, schedule: Q04DX002 (ip), vehicle: carboxymethylcellulose (CMC) 93 % of control and 95 % of control | dose: 400.0 mg/kg/injection, schedule: Q04DX003 (ip), vehicle: carboxymethylcellulose (CMC) 107 % of control

C/C(=N\N)C(=O)S(=O)(=O)c1c(C)cc(C)cc1C
inactive: dose: 100.0 mg/kg/injection, schedule: Q01DX001 (ip), vehicle: Klucel (hydroxypropylcellulose) (HPC) 97 % of control | dose: 200.0 mg/kg/injection, schedule: Q01DX001 (ip), vehicle: Klucel (hydroxypropylcellulose) (HPC) 97 % of control | dose: 400.0 mg/kg/injection, schedule: Q01DX001 (ip), vehicle: Klucel (hydroxypropylcellulose) (HPC) 101 % of control

O=C1C=C(Nc2ccccc2)C(=O)N1c1ccccc1
inactive: [11] 95 % of control | [12] 95 % of control

CCCCCCCCc1ccc(O)c(Cl)c1
inactive: [3] 95 % of control | [4] 96 % of control

COc1cc(/C=C2\C(=O)C=C(C)CC2(C)C)ccc1O
inactive: dose: 25.0 mg/kg/injection, schedule: Q04DX003 (ip), vehicle: saline with Tween-80 92 % of control | dose: 50.0 mg/kg/injection, schedule: Q04DX003 (ip), vehicle: saline with Tween-80 89 % of control | [22] 89 % of control | [23] 90 % of control

NC(Cc1cnc(N=Nc2ccc(S(=O)(=O)N(CCCl)CCCl)cc2)[nH]1)C(=O)O (stereo not drawn)
inactive: dose: 50.0 mg/kg/injection, schedule: Q01DX009 (ip), vehicle: Klucel (hydroxypropylcellulose) (HPC) 93 % of control | [9] 90 % of control | [10] 97 % of control

CC1(C)OCC(C2OC(c3ccccc3)OC(CO)C2O)O1 (stereo not drawn)
inactive: dose: 12.5 mg/kg/injection, schedule: Q04DX002 (ip), vehicle: saline with Tween-80 87 % of control | dose: 25.0 mg/kg/injection, schedule: Q04DX002 (ip), vehicle: saline with Tween-80 101 % of control | dose: 50.0 mg/kg/injection, schedule: Q04DX002 (ip), vehicle: saline with Tween-80 100 % of control

CC(=O)N1CN(C(C)=O)CN(C(C)=O)C1
inactive: [9] 95 % of control | [25] 91 % of control | [10] 92 % of control | [26] 102 % of control | dose: 400.0 mg/kg/injection, schedule: Q01DX009 (ip), vehicle: Klucel (hydroxypropylcellulose) (HPC) 97 % of control | [27] 95 % of control

CC(=O)Nc1cccc2ccccc12
inactive: [22] 97 % of control | [23] 101 % of control | [24] 100 % of control

CC(C)(c1ccsc1)c1sccc1C(=O)O
inactive: [22] 100 % of control | [23] 87 % of control | [24] 87 % of control

CN(C)C(=O)C1C2C=CC(C3CC23)C1C(=O)N(C)C (stereo not drawn)
inactive: [14] 95 % of control | [16] 90 % of control | [18] 95 % of control

O=C1Nc2ccc(Br)cc2C1(O)Cc1cccc([N+](=O)[O-])c1 (stereo not drawn)
inactive: dose: 50.0 mg/kg/injection, schedule: Q01DX009 (ip), vehicle: saline with Tween-80 90 % of control | [3] 93 % of control | [25] 91 % of control | [4] 90 % of control | [26] 91 % of control

CP1(=O)CCC(Br)C1Br (stereo not drawn)
inactive: [25] 91 % of control | [26] 91 % of control | [27] 98 % of control
